The values below come from patent US7026357B2, “Diphenylurea compounds” (Les Laboratoires Servier, priority 2000, dated 2006).

One series relates to Male NMRI mice. Briefly: Marble-burying test in the mouse. To be noted: 0.5 h, 24 marbles, 30 minutes' free exploration, read-out: effective dose 50 (ED50), inhibition of marble-burying. Type of series: in vivo. The source says: This test allows evaluation of the capacity of pharmacological agents to inhibit the spontaneous marble-burying behaviour in mice, the inhibition being predictive of antidepressant and/or anti-impulsive action. Male NMRI mice weighing from 20 to 25 g on the day of the experiment are placed individually in Macrolon boxes containing 5 cm of sawdust and covered with a perforated plexiglass plate. Twenty four “tiger's eye” glass marbles are evenly distributed on the sawdust at the periphery of the box. At the end of 30 minutes' free exploration, the animals are removed from the box and the number of buried marbles is counted.

For another series, the system named is male CD-1 mice. Briefly: Test in the mouse of aggressiveness induced by isolation. Type of series: in vivo. Conditions: isolated male CD-1 mice; subcutaneous administration; 30 minutes before test; three minutes observation. The source says:
The animals used are male CD-1 mice. On arrival, the mice are isolated in individual cages with free access to food and drink. After a period of isolation of one month, pairs of mice that are constant in their aggressiveness are selected by observation of the latent period, the number and the duration of attacks when they are placed in each other's presence. The test takes place once a week. On the day of the test, each mouse of the pair of mice (resident mouse and intruder mouse) is given a subcutaneous injection of carrier (control animals) or of test product (treated animals) in a volume of 10 ml/kg. After 30 minutes, the intruder mouse is introduced into the cage of the resident mouse. The latent period of the first attack and the number and duration of attacks are then measured for a period of three minutes. A product is considered as specifically anti-aggressive when it reduces the number and the duration of attacks at non-sedative doses.

A further series addresses T1, 5-HT2c receptors (Rattus norvegicus, UniProt P08909).
T1 construct: Male Wistar rats weighing from 120 to 140 g on the day of the experiment; from tissue; host or cells: whole animal (male Wistar rat), endogenous receptor
T1 sequence (P08909 33-460): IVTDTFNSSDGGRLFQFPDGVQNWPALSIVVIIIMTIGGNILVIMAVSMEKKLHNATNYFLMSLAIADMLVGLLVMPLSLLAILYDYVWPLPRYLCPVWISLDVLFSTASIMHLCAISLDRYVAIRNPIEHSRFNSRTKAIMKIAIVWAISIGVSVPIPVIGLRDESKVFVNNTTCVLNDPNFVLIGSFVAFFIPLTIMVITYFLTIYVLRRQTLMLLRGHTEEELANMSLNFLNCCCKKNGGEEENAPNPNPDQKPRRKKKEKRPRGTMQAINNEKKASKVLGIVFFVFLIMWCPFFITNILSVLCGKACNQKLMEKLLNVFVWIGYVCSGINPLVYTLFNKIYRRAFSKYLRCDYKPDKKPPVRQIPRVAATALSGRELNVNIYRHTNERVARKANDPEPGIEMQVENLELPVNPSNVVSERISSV
In words: Penile erection test in the rat (erections induced by RO 60-0175). Type of series: in vivo. Conditions: male Wistar rats; RO 60-0175 1.25 mg/kg s.c. 30 min after test compound; erections counted during 30 minutes. The method, then: The test allows the evaluation of the capacity of pharmacological agents to inhibit penile erections caused by the administration of a 5-HT2c selective agonist, RO 60-0175.
Male Wistar rats weighing from 120 to 140 g on the day of the experiment are placed individually into plexiglass observation boxes immediately after having been administered the test compound or the carrier. Thirty minutes later, the animals are administered RO 60-0175 (1.25 mg/kg, subcutaneous route) and the number of erections that occur during the 30 minutes that follow is counted.

The structures appear in SMILES notation.

The term melting point denotes the temperature, or range, at which the solid turns liquid. Turning to `Cc1ccc(NC(=O)Nc2ccc3c(c2)C(c2c[nH]cn2)CCC3)cc1Cl.Cl` (centres unmarked), the melting point was in the range of 255 to 257 °C.
`Cc1ccc(NC(=O)Nc2ccc3c(c2)CC(c2c[nH]cn2)CC3)cc1Cl.Cl` (centres unmarked) returned a melting point of 206 to 208 °C.
The same measure, in the same setting: in the case of `CSc1ccc(NC(=O)Nc2ccc3c(c2)CC(c2c[nH]cn2)C3)cc1.Cl` (centres unmarked) it was 243 to 245 °C; in that of `Cl.O=C(Nc1cccc(N2CCN(CC3COc4ccccc4O3)CC2)c1)Nc1ccc(F)c(Cl)c1` (centres unmarked), 132 to 136 °C; in that of `Cc1ccc(NC(=O)Nc2cccc(C(C)C3=NCCN3)c2)cc1Cl.Cl` (centres unmarked), 100 to 102 °C.
The same measure, in the same setting: in the case of `Cc1ccc(NC(=O)Nc2ccc(C)c(NC3=NCCN3)c2)cc1Cl.Cl` it was 252 to 254 °C; in that of `Cc1ccc(NC(=O)Nc2ccc3c(c2)CC(c2c[nH]cn2)C3)cc1C.Cl` (centres unmarked), 232 to 234 °C; in that of `Cc1ccc(NC(=O)Nc2ccc3c(c2)CC(c2c[nH]cn2)C3)cc1Cl.Cl` (centres unmarked), 235 to 237 °C.
Same read-out and setting: in the case of `Cc1ccc(NC(=O)Nc2cccc(NC3=NCCN3)c2)cc1Cl.Cl` it was 180 to 185 °C.
For the compound `Cl.Cl.O=C(Nc1cccc(N2CCN(CC3COc4ccccc4O3)CC2)c1)N1CCc2c1ccc1ccccc21` (centres unmarked), the melting point is 194 to 196 °C.
The same measure, in the same setting: in the case of `Cc1ccc(NC(=O)Nc2ccc3c(c2)CN(C2=NCCN2)CC3)cc1Cl.Cl` it was 237 to 239 °C; in that of `COc1ccc(NC(=O)Nc2ccc(C)c(Cl)c2)cc1N1CCN(CC2COc3ccccc3O2)CC1.Cl` (centres unmarked), 193 to 197 °C.
The same measure, in the same setting: in the case of `Cc1ccc(NC(=O)Nc2ccc(Cl)c(NC3=NCCN3)c2)cc1Cl.Cl` it was 255 to 257 °C; in that of `COc1ccc(NC(=O)Nc2ccc(C)c(Cl)c2)cc1N1CCN(C)CC1.Cl`, 206 to 208 °C; in that of `Cc1ccc(NC(=O)Nc2ccc(C)c(N3CCN(C)CC3)c2)cc1Cl.Cl`, 229 to 231 °C.
On the same count and under the same terms, in the case of `COc1ccc(NC(=O)Nc2ccc(C)c(C)c2)cc1N1CCN(CC2COc3ccccc3O2)CC1.Cl.Cl` (centres unmarked) it was 234 to 236 °C; in that of `COc1ccc(NC(=O)Nc2ccc(F)c(Cl)c2)cc1N1CCN(CC2COc3ccccc3O2)CC1.Cl` (centres unmarked), 120 to 130 °C; in that of `Cc1ccc(NC(=O)Nc2cccc(CCc3c[nH]cn3)c2)cc1Cl.Cl`, 237 to 239 °C.
`Cc1ccc(NC(=O)Nc2cccc(C(C)(C)C3=NCCN3)c2)cc1Cl.Cl`: the melting point is 232 to 233 °C.
On the same count and under the same terms, in the case of `Cc1cc2c(cc1Cl)N(C(=O)Nc1ccc(N3CCN(CC4COc5ccccc5O4)CC3)cc1)CC2.Cl.Cl` (centres unmarked) it was 174 to 176 °C.
The term ED50 denotes the dose that gives a 50% effect, or the effect in half of the subjects. On to `Cc1ccc(NC(=O)Nc2cccc(N3CCN(CC4COc5ccccc5O4)CC3)c2)cc1Cl.Cl` (centres unmarked) [Example 6, N-(3-Chloro-4-methylphenyl)-N′-{3-[4-(2,3-dihydro-1,4-benzodioxin-2-ylmethyl)-1-piperazinyl]phenyl}urea hydrochloride], for which the melting point lay in the range of 180 to 185 °C. For the same compound, in the series with Male NMRI mice, the 50% effective dose (ED50) amounted to 0.4 mg/kg. In addition, the “inhibitory dose 50 (ID50), number and duration of attacks” value in the series with male CD-1 mice turned out to be 2.5 mg/kg. Further, at 5-HT2c receptors, the “inhibitory dose 50 (ID50), inhibition of penile erections” value was found to be 0.7 mg/kg.
`Cc1ccc(NC(=O)Nc2cccc(CCC3=NCCN3)c2)cc1Cl.Cl` came in with a melting point of 212 to 214 °C.
The same measure, in the same setting: in the case of `Cc1ccc(NC(=O)Nc2cccc(N3CCN(CC4COc5ccccc5O4)CC3)c2)cc1C.Cl` (centres unmarked) it was 228 to 230 °C.
On the same count and under the same terms, in the case of `Cc1ccc(NC(=O)Nc2cccc(CC3=NCCN3)c2)cc1Cl.Cl` it was 227 to 229 °C; in that of `Cl.Cl.O=C(Nc1cccc(N2CCN(CC3COc4ccccc4O3)CC2)c1)N1CCc2cc(F)c(Cl)cc21` (centres unmarked), 202 to 204 °C; in that of `Cc1ccc(NC(=O)Nc2ccc3c(c2)C(c2c[nH]cn2)CCO3)cc1Cl.Cl` (centres unmarked), greater than 260 °C.
